The assay concerns the target hQC (Homo sapiens, UniProt Q16769). Put plainly: Inhibitor assay for glutaminyl cyclase activity (fluorometric, H-Gln-βNA / H-Gln-AMC). The assay is classed as biochemical. The essentials: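 Coupled fluorometric assay at 30 °C with pyroglutamyl aminopeptidase, in Tris/HCl pH 8.0 with EDTA, substrate H-Gln-βNA (0.2 mM; ex/em 320/410 nm) or H-Gln-AMC (ex/em 380/460 nm), initiated by QC. Screening: 4 mM inhibitor, substrate at 1 KM; Ki from progress curves fitted to competitive inhibition.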

Molecules are shown by their SMILES. Read-outs that look alike come from different tables or passages of the source.

We go through 35 molecules from patent US8278345B2, “Inhibitors of glutaminyl cyclase” (Probiodrug AG, priority 2006, dated 2012).

hQC, sequence (Q16769 29-361): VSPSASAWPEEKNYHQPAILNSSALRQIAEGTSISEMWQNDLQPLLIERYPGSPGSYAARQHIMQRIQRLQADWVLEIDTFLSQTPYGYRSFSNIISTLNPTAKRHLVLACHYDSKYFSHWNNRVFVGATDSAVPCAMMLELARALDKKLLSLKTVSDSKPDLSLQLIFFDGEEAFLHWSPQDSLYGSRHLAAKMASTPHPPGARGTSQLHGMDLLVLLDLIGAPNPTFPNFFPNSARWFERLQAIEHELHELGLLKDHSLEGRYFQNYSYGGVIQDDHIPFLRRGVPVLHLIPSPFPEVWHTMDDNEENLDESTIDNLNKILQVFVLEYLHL

As to `O=C1C(O)=C(c2ccc(O)cc2)C(c2ccc3cccc(O)c3n2)N1c1ccc2[nH]cnc2c1` (stereo not shown) [Compound 391, 1-(1H-Benzoimidazol-5-yl)-3-hydroxy-4-(4-hydroxy-phenyl)-5-(8-hydroxy-quinolin-2-yl)-1,5-dihydro-pyrrol-2-one], the half-inhibitory concentration (IC50) (read-out: IC50) is 40 nM.

As to `CCC1=C(O)C(=O)N(CCCn2ccnc2)C1C(F)(F)F` (stereo not shown) [Compound 240, 4-Ethyl-3-hydroxy-1-(3-imidazol-1-yl-propyl)-5-trifluoromethyl-1,5-dihydro-pyrrol-2-one], where the note is “read-out: IC50”, the half-maximal inhibitory concentration (IC50) amounted to 40 nM.

Turning to `CC(C)C1=C(O)C(=O)N(c2ccc3[nH]cnc3c2)C1c1ccsc1` (stereo not shown) [Compound 348, 1-(1H-Benzoimidazol-5-yl)-3-hydroxy-4-isopropyl-5-thiophen-3-yl-1,5-dihydro-pyrrol-2-one], where the note is “read-out: IC50”, the IC50 turned out to be 4090 nM.

Turning to `CCC1=C(O)C(=O)N(c2ccc3[nH]cnc3c2)C1c1c(F)ccc(Cl)c1F` (stereo not shown) [Compound 290, 1-(1H-Benzoimidazol-5-yl)-5-(3-chloro-2,6-difluoro-phenyl)-4-ethyl-3-hydroxy-1,5-dihydro-pyrrol-2-one], the IC50 (read-out: IC50) turned out to be 3820 nM.

With `O=C1C(O)=C(c2ccc(O)cc2)C(c2coc3ccccc3c2=O)N1c1ccc2[nH]cnc2c1` (stereo not shown) [Compound 286, 1-(1H-Benzoimidazol-5-yl)-3-hydroxy-4-(4-hydroxy-phenyl)-5-(4-oxo-4H-chromen-3-yl)-1,5-dihydro-pyrrol-2-one], the half-maximal inhibitory concentration (IC50) (read-out: IC50) was determined as 3550 nM.

In the case of `O=C1C(O)=C(c2ccc(O)cc2)C(C(F)(F)F)N1CCCn1ccnc1` (stereo not shown) [Compound 166, 3-Hydroxy-4-(4-hydroxy-phenyl)-1-(3-imidazol-1-yl-propyl)-5-trifluoromethyl-1,5-dihydro-pyrrol-2-one], the IC50 (read-out: IC50) was 400 nM.

As to `CCCCCC1=C(O)C(=O)N(CCCn2ccnc2)C1CCCCC` (stereo not shown) [Compound 196, 3-Hydroxy-1-(3-imidazol-1-yl-propyl)-4,5-dipentyl-1,5-dihydro-pyrrol-2-one], where the note is “read-out: IC50”, the IC50 is 40 nM.

Turning to `O=C1C(O)=C(c2cccc(O)c2)C(C2CC2)N1CCCn1ccnc1` (stereo not shown) [Compound 19, 5-Cyclopropyl-3-hydroxy-4-(3-hydroxy-phenyl)-1-(3-imidazol-1-yl-propyl)-1,5-dihydro-pyrrol-2-one], the IC50 (read-out: IC50) amounted to 1300 nM.

Consider `CC1=C(O)C(=O)N(CCCn2ccnc2)C1c1cccc(Cl)c1` (stereo not shown) [Compound 50, 5-(3-Chloro-phenyl)-3-hydroxy-1-(3-imidazol-1-yl-propyl)-4-methyl-1,5-dihydro-pyrrol-2-one], for which the 50% inhibitory concentration (IC50) (read-out: IC50) came out at 400 nM.

For the molecule `CCC1=C(O)C(=O)N(CCCn2ccnc2)C1c1cccs1` (stereo not shown) [Compound 245, 4-Ethyl-3-hydroxy-1-(3-imidazol-1-yl-propyl)-5-thiophen-2-yl-1,5-dihydro-pyrrol-2-one], the concentration for half-maximal inhibition (IC50) (read-out: IC50) was determined as 40 nM.

In the case of `CC(=O)C1=C(O)C(=O)N(c2ccc3[nH]cnc3c2)C1c1cc[nH]n1` (stereo not shown) [Compound 444, 4-Acetyl-1-(1H-benzoimidazol-5-yl)-3-hydroxy-5-(1H-pyrazol-3-yl)-1,5-dihydro-pyrrol-2-one], the concentration for half-maximal inhibition (IC50) (read-out: IC50) was 6880 nM.

As to `CCCCCC1C(c2c[nH]c3ccccc23)=C(O)C(=O)N1CCCn1ccnc1` (stereo not shown) [Compound 124, 3-Hydroxy-1-(3-imidazol-1-yl-propyl)-4-(1H-indol-3-yl)-5-pentyl-1,5-dihydro-pyrrol-2-one], the concentration for half-maximal inhibition (IC50) (read-out: IC50) turned out to be 400 nM.

Regarding `COc1ccc(C2C(c3c[nH]c4ccccc34)=C(O)C(=O)N2CCCn2ccnc2)cc1` (stereo not shown) [Compound 121, 3-Hydroxy-1-(3-imidazol-1-yl-propyl)-4-(1H-indol-3-yl)-5-(4-methoxy-phenyl)-1,5-dihydro-pyrrol-2-one], the concentration for half-maximal inhibition (IC50) (read-out: IC50) stood at 40 nM.

As to `CCCCC1C(c2ccc(O)cc2)=C(O)C(=O)N1CCCn1ccnc1` (stereo not shown) [Compound 177, 5-Butyl-3-hydroxy-4-(4-hydroxy-phenyl)-1-(3-imidazol-1-yl-propyl)-1,5-dihydro-pyrrol-2-one], for the setting “read-out: IC50”, the IC50 is 40 nM.

Consider `O=C1C(O)=C(c2c[nH]c3ccccc23)C(c2coc3ccccc3c2=O)N1c1ccc2[nH]cnc2c1` (stereo not shown) [Compound 357, 1-(1H-Benzoimidazol-5-yl)-3-hydroxy-4-(1H-indol-3-yl)-5-(4-oxo-4H-chromen-3-yl)-1,5-dihydro-pyrrol-2-one], for which the concentration for half-maximal inhibition (IC50) (read-out: IC50) came out at 4720 nM.

As for `Cc1cc(C2C(c3ccccc3)=C(O)C(=O)N2c2ccc3[nH]cnc3c2)oc1C` (stereo not shown) [Compound 395, 1-(1H-Benzoimidazol-5-yl)-5-(4,5-dimethyl-furan-2-yl)-3-hydroxy-4-phenyl-1,5-dihydro-pyrrol-2-one], the IC50 (read-out: IC50) was 1390 nM.

As to `O=C1C(O)=C(c2c[nH]c3ccccc23)C(c2cc[nH]n2)N1CCCn1ccnc1` (stereo not shown) [Compound 116, 3-Hydroxy-1-(3-imidazol-1-yl-propyl)-4-(1H-indol-3-yl)-5-(1H-pyrazol-3-yl)-1,5-dihydro-pyrrol-2-one], the IC50 (read-out: IC50) is 400 nM.

As to `O=C1C(O)=C(c2ccc(O)cc2)C(c2ccco2)N1CCCn1ccnc1` (stereo not shown) [Compound 176, 5-Furan-2-yl-3-hydroxy-4-(4-hydroxy-phenyl)-1-(3-imidazol-1-yl-propyl)-1,5-dihydro-pyrrol-2-one], where the note is “read-out: IC50”, the IC50 came out at 40 nM.

For `Cc1ccc(C2C(C(=O)c3cccs3)=C(O)C(=O)N2c2ccc3[nH]cnc3c2)o1` (stereo not shown) [Compound 321, 1-(1H-Benzoimidazol-5-yl)-3-hydroxy-5-(5-methyl-furan-2-yl)-4-(thiophene-2-carbonyl)-1,5-dihydro-pyrrol-2-one], for the setting “read-out: IC50”, the IC50 was 760 nM.

Consider `CCCCCC1=C(O)C(=O)N(c2ccc3[nH]cnc3c2)C1c1ccccc1F` (stereo not shown) [Compound 325, 1-(1H-Benzoimidazol-5-yl)-5-(2-fluoro-phenyl)-3-hydroxy-4-pentyl-1,5-dihydro-pyrrol-2-one], for which the half-inhibitory concentration (IC50) (read-out: IC50) is 940 nM.

`CCC1=C(O)C(=O)N(CCCn2ccnc2)C1c1ccc(C)c(C)c1` (stereo not shown) [Compound 231, 5-(3,4-Dimethyl-phenyl)-4-ethyl-3-hydroxy-1-(3-imidazol-1-yl-propyl)-1,5-dihydro-pyrrol-2-one]: for the setting “read-out: IC50”, the concentration for half-maximal inhibition (IC50) came out at 400 nM.

Consider `CCCCCC1=C(O)C(=O)N(CCCn2ccnc2)C1CCC` (stereo not shown) [Compound 187, 3-Hydroxy-1-(3-imidazol-1-yl-propyl)-4-pentyl-5-propyl-1,5-dihydro-pyrrol-2-one], for which the 50% inhibitory concentration (IC50) (read-out: IC50) is 40 nM.

Turning to `CC(=O)C1=C(O)C(=O)N(c2ccc3[nH]cnc3c2)C1c1ccsc1` (stereo not shown) [Compound 367, 4-Acetyl-1-(1H-benzoimidazol-5-yl)-3-hydroxy-5-thiophen-3-yl-1,5-dihydro-pyrrol-2-one], the IC50 (read-out: IC50) is 760 nM.

For the molecule `O=C1C(O)=C(c2ccccc2)C(c2ccc3cccc(O)c3n2)N1c1ccc2[nH]cnc2c1` (stereo not shown) [Compound 398, 1-(1H-Benzoimidazol-5-yl)-3-hydroxy-5-(8-hydroxy-quinolin-2-yl)-4-phenyl-1,5-dihydro-pyrrol-2-one], where the note is “read-out: IC50”, the concentration for half-maximal inhibition (IC50) was determined as 40 nM.

Take `CCC1=C(O)C(=O)N(CCCn2ccnc2)C1c1ccc(O)cc1` (stereo not shown) [Compound 251, 4-Ethyl-3-hydroxy-5-(4-hydroxy-phenyl)-1-(3-imidazol-1-yl-propyl)-1,5-dihydro-pyrrol-2-one]: under “read-out: IC50”, the IC50 came out at 400 nM.

Regarding `CC1=C(O)C(=O)N(c2ccc3[nH]cnc3c2)C1c1ccc2nsnc2c1` (stereo not shown) [Compound 380, 1-(1H-Benzoimidazol-5-yl)-5-benzo[c][1,2,5]thiadiazol-5-yl-3-hydroxy-4-methyl-1,5-dihydro-pyrrol-2-one], the IC50 (read-out: IC50) was 1030 nM.

With `O=C1C(O)=C(c2ccc(O)cc2)C(c2c[nH]c3ccccc23)N1CCCn1ccnc1` (stereo not shown) [Compound 167, 3-Hydroxy-4-(4-hydroxy-phenyl)-1-(3-imidazol-1-yl-propyl)-5-(1H-indol-3-yl)-1,5-dihydro-pyrrol-2-one], the 50% inhibitory concentration (IC50) (read-out: IC50) stood at 40 nM.

Take `O=C(O)CC1=C(O)C(=O)N(c2ccc3[nH]cnc3c2)C1c1ccnc2ccccc12` (stereo not shown) [Compound 297, [1-(1H-Benzoimidazol-5-yl)-4-hydroxy-5-oxo-2-quinolin-4-yl-2,5-dihydro-1H-pyrrol-3-yl]-acetic acid]: the half-maximal inhibitory concentration (IC50) (read-out: IC50) was found to be 2380 nM.

`O=C(C1=C(O)C(=O)N(c2ccc3[nH]cnc3c2)C1c1ccnc2ccccc12)C1CCCCC1` (stereo not shown) [Compound 293, 1-(1H-Benzoimidazol-5-yl)-4-cyclohexanecarbonyl-3-hydroxy-5-quinolin-4-yl-1,5-dihydro-pyrrol-2-one]: for the setting “read-out: IC50”, the IC50 came to 220 nM.

Consider `CC1=C(O)C(=O)N(c2ccc3nc[nH]c3c2)C1c1c(F)ccc(F)c1Cl` (stereo not shown) [Compound 472, 1-(1H-benzo[d]imidazol-6-yl)-5-(2-chloro-3,6-difluorophenyl)-3-hydroxy-4-methyl-1H-pyrrol-2(5H)-one], for which the Ki (compound from preparative synthesis, purified) stood at 55.8 nM. Also, where the note is “read-out: IC50”, the IC50 is 470 nM.

Turning to `CCC1=C(O)C(=O)N(CCCn2ccnc2)C1c1ccccn1` (stereo not shown) [Compound 243, 4-Ethyl-3-hydroxy-1-(3-imidazol-1-yl-propyl)-5-pyridin-2-yl-1,5-dihydro-pyrrol-2-one], the 50% inhibitory concentration (IC50) (read-out: IC50) stood at 400 nM.

For the molecule `O=C1C(O)=C(c2ccc(O)cc2)C(c2cccc(F)c2)N1c1ccc2[nH]cnc2c1` (stereo not shown) [Compound 363, 1-(1H-Benzoimidazol-5-yl)-5-(3-fluoro-phenyl)-3-hydroxy-4-(4-hydroxy-phenyl)-1,5-dihydro-pyrrol-2-one], the IC50 (read-out: IC50) was determined as 670 nM.

Take `O=C1C(O)=C(c2ccccc2)C(c2cc3ccccc3nc2Cl)N1c1ccc2[nH]cnc2c1` (stereo not shown) [Compound 373, 1-(1H-Benzoimidazol-5-yl)-5-(2-chloro-quinolin-3-yl)-3-hydroxy-4-phenyl-1,5-dihydro-pyrrol-2-one]: the IC50 (read-out: IC50) is 4090 nM.

For the molecule `O=C1C(O)=C(c2ccc(O)cc2)C(C(O)CO)N1CCCn1ccnc1` (stereo not shown) [Compound 152, 5-(1,2-Dihydroxy-ethyl)-3-hydroxy-4-(4-hydroxy-phenyl)-1-(3-imidazol-1-yl-propyl)-1,5-dihydro-pyrrol-2-one], the IC50 (read-out: IC50) amounted to 400 nM.

On to `O=C1C(O)=C(c2ccccc2)C(c2ccccc2F)N1CCCn1ccnc1` (stereo not shown) [Compound 110, 5-(2-Fluoro-phenyl)-3-hydroxy-1-(3-imidazol-1-yl-propyl)-4-phenyl-1,5-dihydro-pyrrol-2-one], for which the concentration for half-maximal inhibition (IC50) reads like this: (compound from preparative synthesis, purified, read-out: IC50 hQC) 740 nM; (read-out: IC50) 40 nM.
